The values below come from ChEMBL document CHEMBL1201862, “PubChem BioAssay data set” (2004).

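All cell lines were grown in 96-well plates and treated with compound for 48 hours. GI50 = concentration required for 50% inhibition of growth.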 Active and inactive are the calls of the source. Rule as the data show it: active = GI50 up to about 1.1 µM and inactive = higher. Bounds are passed on as bounds.

Test systems include A549; 786-0; SR; M14; SNB-75; UO-31; SK-OV-3; UACC-257; HOP-62; Hs-578T; NCI/ADR-RES; NCI-H522; ACHN; A498; Malme-3M; MCF7; RPMI-8226; IGROV-1; TK-10; NCI-H460.
Holding throughout (assay): NCI anticancer screen, dose series, 48 h

On to `CC(=O)O[C@H]1C(=O)[C@]2(C)[C@@H](OC(=O)OCCC(O)CO)C[C@H]3OC[C@@]3(OC(C)=O)[C@H]2[C@H](OC(=O)c2ccccc2)[C@]2(O)C[C@H](OC(=O)[C@H](O)[C@@H](NC(=O)c3ccccc3)c3ccccc3)C(C)=C1C2(C)C` (stereo not given in full), for which the GI50 in the assay on A549 was 0.035 µM (active); with 786-0 it was 0.08 µM (active); in the assay on SR, < 0.01 µM (active); with M14, 0.0461 µM (active); in the assay on SNB-75, < 0.01 µM (active); in the assay with UO-31, 8.61 µM (inactive). The GI50 with SK-OV-3 is 0.0307 µM (active); in the assay on UACC-257 it was 0.037 µM (active); in the assay on HOP-62 it was 0.0964 µM (active); in the assay on Hs-578T, < 0.01 µM (active); in the assay with NCI/ADR-RES it was 15.2 µM (inactive); with NCI-H522, < 0.01 µM (active). Also, the GI50 was 3.48 µM (inactive) in the assay on ACHN; 0.783 µM (active) in the assay on A498; < 0.01 µM (active) in the assay with Malme-3M; < 0.01 µM (active) in the assay on MCF7; < 0.01 µM (active) with RPMI-8226; < 0.0142 µM (active) with IGROV-1. The GI50 was 2.4 µM (inactive) with TK-10 and < 0.0126 µM (active) in the assay on NCI-H460.

With `CC(C)(C)c1cc(C(=O)/C=C/C=C/c2ccccc2)cc(C(C)(C)C)c1O`, the GI50 in the assay on A549 is 17.8 µM (inactive); with 786-0, 17.1 µM (inactive); in the assay with SR, 3.24 µM (inactive); in the assay with M14 it was 17.2 µM (inactive); in the assay on SNB-75, 14.7 µM (inactive); in the assay with UO-31, 17.6 µM (inactive). The GI50 is 31.8 µM (inactive) in the assay on SK-OV-3; 6.53 µM (inactive) in the assay on UACC-257; 41.2 µM (inactive) in the assay on HOP-62; 25.7 µM (inactive) in the assay on Hs-578T; 8.73 µM (inactive) with NCI/ADR-RES; 10.3 µM (inactive) in the assay with NCI-H522. For the same compound, the GI50 in the assay on ACHN was 29.2 µM (inactive); in the assay on A498, 20.6 µM (inactive); in the assay with Malme-3M, 47.9 µM (inactive); in the assay on MCF7 it was 8.3 µM (inactive); in the assay with RPMI-8226, 6.97 µM (inactive); with IGROV-1, 33.3 µM (inactive). Besides, the GI50 in the assay on TK-10 is 19.5 µM (inactive); with NCI-H460 it was 15.4 µM (inactive).

Turning to `O/N=C1\Nc2ccccc2OCc2cc(Br)c(Br)cc2COc2ccccc2N\C1=N/O`, the GI50 with A549 was 17.6 µM (inactive); with 786-0, 10 µM (inactive); in the assay with SR it was 2.06 µM (inactive); in the assay on M14 it was 21.2 µM (inactive); with SNB-75 it was 20.2 µM (inactive); in the assay on UO-31, 19.1 µM (inactive). The GI50 with SK-OV-3 was 17.2 µM (inactive); with UACC-257, 21.8 µM (inactive); in the assay on HOP-62, 15.5 µM (inactive); in the assay on Hs-578T, 31.7 µM (inactive); in the assay on NCI/ADR-RES, 20.2 µM (inactive); with NCI-H522, 6.43 µM (inactive). Besides, the GI50 in the assay on ACHN was 5.97 µM (inactive); with A498 it was 17.5 µM (inactive); in the assay on Malme-3M, 16.4 µM (inactive); in the assay on MCF7, 6.81 µM (inactive); in the assay with RPMI-8226, 10.8 µM (inactive); in the assay on IGROV-1 it was 2.79 µM (inactive). Besides, the GI50 was 25 µM (inactive) with TK-10 and 13.2 µM (inactive) in the assay with NCI-H460.

On to `C=C1c2nc3ccccc3n2C=C(c2ccc(OC)cc2)N1c1ccc(OCCN2CCOCC2)cc1`, for which the GI50 in the assay on A549 is 28.4 µM (inactive); in the assay on 786-0, 36.9 µM (inactive); in the assay with SR it was 4.41 µM (inactive); in the assay with M14 it was 9.73 µM (inactive); in the assay with SNB-75, > 100 µM (inactive); with UO-31, 24.7 µM (inactive). Moreover, the GI50 is > 100 µM (inactive) in the assay on SK-OV-3; 7.13 µM (inactive) with UACC-257; > 100 µM (inactive) in the assay on HOP-62; 4.7 µM (inactive) in the assay on Hs-578T; 5.21 µM (inactive) with NCI/ADR-RES; 1.43 µM (inactive) in the assay with NCI-H522. For the same compound, the GI50 in the assay with ACHN was 46.9 µM (inactive); with A498 it was 66.8 µM (inactive); in the assay on Malme-3M, 6.52 µM (inactive); in the assay with MCF7, 12.3 µM (inactive); in the assay on RPMI-8226, 1.91 µM (inactive); with IGROV-1, > 100 µM (inactive). The GI50 in the assay with TK-10 is 18.1 µM (inactive); in the assay on NCI-H460, 3.72 µM (inactive).

For `CCOC(=O)Cc1[nH]c(C(=O)c2ccccc2)cc1C(=O)c1ccccc1`, the GI50 was 25.4 µM (inactive) in the assay with A549; > 10 µM (inactive) in the assay with 786-0; 38.4 µM (inactive) in the assay on SR; 88.1 µM (inactive) in the assay on M14; 59.8 µM (inactive) with SNB-75; > 10 µM (inactive) with UO-31. The GI50 in the assay on SK-OV-3 is > 100 µM (inactive); with UACC-257, > 10 µM (inactive); in the assay with HOP-62 it was 23.8 µM (inactive); with Hs-578T, > 100 µM (inactive); with NCI/ADR-RES, > 100 µM (inactive); in the assay with NCI-H522 it was 52.5 µM (inactive). Besides, the GI50 in the assay with ACHN was > 10 µM (inactive); with A498, 36.8 µM (inactive); in the assay on Malme-3M, 33.6 µM (inactive); in the assay with MCF7 it was > 10 µM (inactive); in the assay on RPMI-8226, > 10 µM (inactive); in the assay on IGROV-1, > 10 µM (inactive). Further, the GI50 in the assay on TK-10 was 36 µM (inactive); in the assay with NCI-H460 it was 71.8 µM (inactive).

As to `COc1cc(C2c3cc4c(cc3OC(Nc3ccccc3)C2C)OCO4)cc(OC)c1OC` (stereo not given), the GI50 in the assay with A549 was 1.11 µM (active); with 786-0, 0.774 µM (active); in the assay with SR it was 0.828 µM (active); in the assay with M14, 0.381 µM (active); in the assay on SNB-75, 3.08 µM (inactive); with UO-31, 2.09 µM (inactive). Besides, the GI50 was 1.08 µM (active) with SK-OV-3; 2.82 µM (inactive) in the assay with UACC-257; 0.366 µM (active) in the assay with HOP-62; 0.479 µM (active) in the assay on Hs-578T; 0.564 µM (active) in the assay on NCI/ADR-RES; 0.337 µM (active) in the assay with NCI-H522. Besides, the GI50 is 1.39 µM (inactive) in the assay with ACHN; 0.324 µM (active) in the assay on A498; 0.166 µM (active) with Malme-3M; 0.536 µM (active) with MCF7; 0.608 µM (active) in the assay on RPMI-8226; 1.41 µM (inactive) in the assay on IGROV-1. Besides, the GI50 in the assay on TK-10 was 23.6 µM (inactive); in the assay with NCI-H460, 0.524 µM (active).

For the compound `COc1cccc(C2c3cc4c(cc3OC(NNC(N)=O)C2C)OCO4)c1O` (stereo not given), the GI50 in the assay on A549 is 1.92 µM (inactive); in the assay with 786-0, 1.52 µM (inactive); with SR it was 1.64 µM (inactive); in the assay on M14 it was 0.513 µM (active); in the assay with SNB-75, 4.33 µM (inactive); in the assay on UO-31, 8.39 µM (inactive). Further, the GI50 in the assay with SK-OV-3 was 5.94 µM (inactive); with UACC-257 it was 3.42 µM (inactive); in the assay on HOP-62 it was 1.35 µM (inactive); in the assay on Hs-578T, 0.741 µM (active); in the assay with NCI/ADR-RES, 3.36 µM (inactive); in the assay on NCI-H522, 0.871 µM (active). The GI50 with ACHN is 3.47 µM (inactive); in the assay on A498 it was 0.83 µM (active); in the assay on Malme-3M, 0.745 µM (active); with MCF7, 0.491 µM (active); in the assay on RPMI-8226, 2.32 µM (inactive); in the assay with IGROV-1 it was 2.58 µM (inactive). Besides, the results for the GI50 in the assay with TK-10 and with NCI-H460 were 9.18 µM (inactive) and 0.951 µM (active), respectively.

In the case of `COc1cc2c(cc1OC)C/C(=N\O)c1cc(OC)c(OC)cc1/C=C\2`, the GI50 in the assay with A549 is 8.38 µM (inactive); in the assay with 786-0 it was 5.52 µM (inactive); in the assay on SR, 1.66 µM (inactive); in the assay with M14, 3.47 µM (inactive); in the assay on SNB-75 it was 5.31 µM (inactive); in the assay on UO-31 it was 15.9 µM (inactive). In addition, the GI50 in the assay on SK-OV-3 is 13.1 µM (inactive); in the assay on UACC-257, 10.4 µM (inactive); in the assay with HOP-62, 2.82 µM (inactive); with Hs-578T it was 2.12 µM (inactive); in the assay on NCI/ADR-RES, 5.55 µM (inactive); in the assay with NCI-H522, 1.01 µM (active). For the same compound, the GI50 with ACHN was 12.9 µM (inactive); in the assay with A498 it was 21.2 µM (inactive); with Malme-3M it was 1.48 µM (inactive); in the assay on MCF7 it was 5.27 µM (inactive); with RPMI-8226, 3.82 µM (inactive); in the assay on IGROV-1, 3.37 µM (inactive). Besides, the GI50 is 18.8 µM (inactive) in the assay with TK-10 and 3.15 µM (inactive) in the assay with NCI-H460.

Turning to `COc1ccc(O)c(/C=N/NC(=S)N2CCCCC2)c1`, the GI50 in the assay on A549 is 1.81 µM (inactive); in the assay on 786-0, 1.15 µM (inactive); in the assay on SR, 0.425 µM (active); with M14 it was 0.592 µM (active); in the assay on SNB-75, 10.5 µM (inactive); in the assay with UO-31 it was 0.746 µM (active). Also, the GI50 in the assay on SK-OV-3 was 2.16 µM (inactive); in the assay on UACC-257 it was 6.04 µM (inactive); with HOP-62 it was 1.35 µM (inactive); in the assay with Hs-578T, 31 µM (inactive); in the assay with NCI/ADR-RES, 1.77 µM (inactive); with NCI-H522, 0.948 µM (active). Moreover, the GI50 was 0.906 µM (active) in the assay on ACHN; 12.1 µM (inactive) with A498; 1.71 µM (inactive) in the assay with Malme-3M; 7.96 µM (inactive) in the assay on MCF7; 1.05 µM (active) in the assay with RPMI-8226; 2.78 µM (inactive) with IGROV-1. Moreover, the GI50 with TK-10 is 3.61 µM (inactive); with NCI-H460, 1.22 µM (inactive).

As for `CN(CC(N)=O)C(=O)N(CCCl)N=O` [SARCNU], the GI50 in the assay on A549 is > 100 µM (inactive); with 786-0, 98.4 µM (inactive); with SR, > 71.1 µM (inactive); with M14 it was > 100 µM (inactive); with SNB-75, 38.6 µM (inactive); with UO-31, > 100 µM (inactive). The GI50 is > 83.9 µM (inactive) with SK-OV-3; > 100 µM (inactive) in the assay with UACC-257; > 100 µM (inactive) with HOP-62; > 100 µM (inactive) in the assay on Hs-578T; > 100 µM (inactive) in the assay with NCI/ADR-RES; > 100 µM (inactive) in the assay with NCI-H522. Also, the GI50 with ACHN, in the assay with A498, in the assay on Malme-3M, with MCF7, with RPMI-8226 and with IGROV-1 was > 100 µM (inactive) each time. Also, the GI50 with TK-10 is > 100 µM (inactive); in the assay on NCI-H460 it was 41.1 µM (inactive).
